Data as given in paper PMC9747329 (ACS chemical biology, 2022).
Non-standard residues stand in square brackets, D forms with d. Residues, ends and D or L forms follow the SMILES beside them. *: point of attachment. X1 = CN(C)c1ccc2c(-c3cc(C(=O)*)ccc3C(=O)[O-])c3ccc(=[N+](C)C)cc-3oc2c1; hArg = N=C(N)NCCCC[C@H](N)C(=O)O; Aib = CC(C)(N)C(=O)O

Key:
[1] = biological target: T1, nLuc-PTHR1 (Homo sapiens, UniProt Q03431); type: binding; conditions: HEK293
T1 sequence (Q03431 27-593): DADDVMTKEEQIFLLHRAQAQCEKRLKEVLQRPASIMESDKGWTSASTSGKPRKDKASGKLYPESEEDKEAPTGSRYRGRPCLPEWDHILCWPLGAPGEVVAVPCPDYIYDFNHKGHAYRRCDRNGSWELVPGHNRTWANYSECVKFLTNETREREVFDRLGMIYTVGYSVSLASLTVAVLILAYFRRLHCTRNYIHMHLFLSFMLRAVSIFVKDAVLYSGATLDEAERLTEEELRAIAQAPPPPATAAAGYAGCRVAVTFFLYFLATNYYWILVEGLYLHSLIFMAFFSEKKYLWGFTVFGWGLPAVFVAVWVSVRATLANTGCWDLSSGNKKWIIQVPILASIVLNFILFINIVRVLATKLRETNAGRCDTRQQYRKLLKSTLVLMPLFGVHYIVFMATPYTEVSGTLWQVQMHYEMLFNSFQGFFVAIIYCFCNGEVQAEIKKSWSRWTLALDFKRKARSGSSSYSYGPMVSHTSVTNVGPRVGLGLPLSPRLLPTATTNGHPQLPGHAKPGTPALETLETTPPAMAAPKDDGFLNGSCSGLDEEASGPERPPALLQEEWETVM

[2] = biological target: T2, nLuc-ΔECD-PTHR1 (Homo sapiens, UniProt Q03431); test: NanoBRET direct binding on truncated receptor lacking the extracellular domain
T2 sequence (Q03431 182-593 limits assumed): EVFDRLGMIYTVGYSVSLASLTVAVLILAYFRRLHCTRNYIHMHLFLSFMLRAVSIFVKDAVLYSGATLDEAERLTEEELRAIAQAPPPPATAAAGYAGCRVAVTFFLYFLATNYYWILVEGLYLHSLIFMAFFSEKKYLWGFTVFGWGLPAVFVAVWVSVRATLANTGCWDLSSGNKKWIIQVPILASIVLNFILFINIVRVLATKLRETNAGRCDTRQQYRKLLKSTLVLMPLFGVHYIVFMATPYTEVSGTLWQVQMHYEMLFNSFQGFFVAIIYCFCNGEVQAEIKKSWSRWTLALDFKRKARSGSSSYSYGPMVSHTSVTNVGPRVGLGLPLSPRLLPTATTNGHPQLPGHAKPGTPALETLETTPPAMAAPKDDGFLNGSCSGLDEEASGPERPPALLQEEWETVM

[3] = biological target: T3, WT-PTHR1 (Homo sapiens, UniProt Q03431); test: GloSensor cAMP assay in GP2.3 cells; type: cell-based; conditions: HEK293, read-out: cAMP formation %Emax
T3 sequence (Q03431 27-593): T1 sequence (Q03431 27-593)

[4] = biological target: T1, nLuc-PTHR1; test: NanoBRET equilibrium competition binding with tracer PTH; conditions: ABL up to 1 μM

Row | Compound | koff [1] | kon [1] | koff [2] | kon [2] | Emax [3] | displacement of PTH(1-34)K35^TMR tracer (in words) [4]
1 | CC[C@H](C)[C@H](NC(=O)[C@H](CC(C)C)NC(=O)[C@H](CCCCN)NC(=O)[C@H](Cc1c[nH]cn1)NC(=O)[C@H](CC(C)C)NC(=O)[C@H](Cc1ccccc1)NC(=O)[C@H](C)NC(=O)[C@H](CCCNC(=N)N)NC(=O)[C@H](CCCNC(=N)N)NC(=O)[C@H](CCCNC(=N)N)NC(=O)[C@H](C)NC(=O)[C@H](CC(=O)O)NC(=O)[C@H](CCC(N)=O)NC(=O)[C@@H](NC(=O)[C@H](Cc1c[nH]c2ccccc12)NC(=O)[C@H](CCCCN)NC(=O)[C@H](C)NC(=O)[C@H](CCCNC(=N)N)NC(=O)[C@H](CCC(N)=O)NC(=O)[C@H](Cc1c[nH]cn1)NC(=O)[C@H](CCSC)NC(=O)[C@H](CC(C)C)NC(=O)[C@H](CCC(N)=O)NC(=O)[C@@H](NC(=O)[C@H](CCC(=O)O)NC(=O)[C@H](C)NC(=O)[C@@H](NC(=O)[C@H](C)N)C(C)C)[C@@H](C)CC)[C@@H](C)CC)C(=O)N[C@@H](C)C(=O)N[C@@H](CCC(=O)O)C(=O)N[C@H](C(=O)N[C@@H](Cc1c[nH]cn1)C(=O)N[C@H](C(=O)N[C@@H](C)C(=O)N[C@@H](CCCCNC(=O)c1ccc(C(=O)[O-])c(-c2c3ccc(=[N+](C)C)cc-3oc3cc(N(C)C)ccc23)c1)C(N)=O)[C@@H](C)O)[C@@H](C)CC [LA-PTH(1-34)-35K^TMR] (H-AVAEIQLMHQRAKWIQDARRRAFLHKLIAEIHTAK(X1)-NH2; N-terminus assumed) | 0.00056 ± 0.0002 s⁻¹ | 230000 ± 40000 M⁻¹ s⁻¹ | 0.0097 ± 0.003 s⁻¹ | 130000 ± 10000 M⁻¹ s⁻¹ | – | –
2 | CC[C@H](C)[C@H](NC(=O)[C@H](CCC(=O)O)NC(=O)C(C)(C)NC(=O)[C@@H](NC(=O)C(C)(C)N)C(C)C)C(=O)N[C@@H](CCC(N)=O)C(=O)N[C@@H](CC(C)C)C(=O)N[C@@H](CCSC)C(=O)N[C@@H](Cc1c[nH]cn1)C(=O)N[C@@H](CCC(N)=O)C(=O)N[C@@H](CCCCNC(=N)N)C(=O)N[C@@H](C)C(=O)N[C@@H](CCCCN)C(=O)N[C@@H](Cc1c[nH]c2ccccc12)C(=O)N[C@@H](CCCCNC(=O)c1ccc(C(=O)[O-])c(-c2c3ccc(=[N+](C)C)cc-3oc3cc(N(C)C)ccc23)c1)C(N)=O [M-PTH(1-14)-15K^TMR] (H-[Aib]V[Aib]EIQLMHQ[hArg]AKWK(X1)-NH2; N-terminus assumed) | 0.024 ± 0.001 s⁻¹ | 77000 ± 20000 M⁻¹ s⁻¹ | 0.018 ± 0.003 s⁻¹ | 180000 ± 50000 M⁻¹ s⁻¹ | – | –
3 | CC[C@H](C)[C@H](NC(=O)[C@H](CCCCNC(=O)c1ccc(C(=O)[O-])c(-c2c3ccc(=[N+](C)C)cc-3oc3cc(N(C)C)ccc23)c1)NC(=O)[C@H](C)NC(=O)[C@@H](NC(=O)[C@H](Cc1c[nH]cn1)NC(=O)[C@@H](NC(=O)[C@H](CCC(=O)O)NC(=O)[C@H](C)NC(=O)[C@@H](NC(=O)[C@H](CC(C)C)NC(=O)[C@H](Cc1c[nH]cn1)NC(=O)[C@H](Cc1c[nH]cn1)NC(=O)[C@H](CC(C)C)NC(=O)[C@H](Cc1ccccc1)NC(=O)[C@H](Cc1ccccc1)NC(=O)[C@H](CCCNC(=N)N)NC(=O)[C@H](CCCNC(=N)N)NC(=O)[C@H](CCCNC(=N)N)NC(=O)[C@H](CCSC)NC(=O)[C@H](CO)NC(=O)[C@H](CC(N)=O)NC(=O)[C@H](CC(C)C)NC(=O)[C@H](Cc1c[nH]cn1)NC(=O)[C@H](CCCCN)NC(=O)CNC(=O)[C@H](CC(C)C)NC(=O)[C@H](CC(N)=O)NC(=O)[C@H](Cc1c[nH]cn1)NC(=O)[C@H](CCSC)NC(=O)[C@H](CC(C)C)NC(=O)[C@H](CCC(N)=O)NC(=O)[C@@H](NC(=O)[C@H](CCC(=O)O)NC(=O)[C@H](CO)NC(=O)[C@@H](NC(=O)[C@@H](N)CO)C(C)C)[C@@H](C)CC)[C@@H](C)CC)[C@@H](C)CC)[C@@H](C)O)C(N)=O [PTH[1-18] PTHrP[19-36]] (H-SVSEIQLMHNLGKHLNSMRRRFFLHHLIAEIHTAK(X1)I-NH2; N-terminus assumed) | 0.0079 ± 0.001 s⁻¹ | 320000 ± 70000 M⁻¹ s⁻¹ | – | – | 106 ± 1% | –
4 | ABL: synthetic analogue of PTHrP(1-34) used clinically for osteoporosis | – | – | – | – | – | failed to fully inhibit
